Test results: the NIST ThermoML archive (doi:10.1021/acs.jced.8b00680)
Values joined by “and” are separate entries in the source; they are usually repeats but may differ in a detail not shown here. Equal values may be shown once.

Settings: Liquid, Ebulliometric method (Recirculating still)

CC(C)CC(C)(C)C [2,2,4-trimethylpentane]
Settings	vapor or sublimation pressure [kPa]
372.26 K	101.3

CCCCCCCCCCO [decan-1-ol]
Settings	vapor or sublimation pressure [kPa]
469.23 K	40
469.83 K	40.03
472.98 K	44.4
475.4 K	47.97
476.8 K	50.19
479.42 K	54.07
481.36 K	57.04
484.05 K	61.26
487.9 K	67.43
491.16 K	73.44
492.56 K	76.32
494.46 K	79.92
496.88 K	85.24

CCCCCCCCCC [decane]
Settings	vapor or sublimation pressure [kPa]
414.08 K	40
414.18 K	40
420.5 K	48.74
425.83 K	57.04
431.14 K	66.32
435.6 K	75.05
439.77 K	83.97
443.51 K	92.72
446.01 K	98.88

CCCCCCCCCCCC [dodecane]
Settings	vapor or sublimation pressure
453.92 K	40.08 kPa and 40 kPa
456.87 K	43.58 kPa
459.31 K	46.71 kPa
461.72 K	49.93 kPa
465.47 K	55.35 kPa
467.52 K	58.41 kPa
470.69 K	63.63 kPa
474.33 K	69.97 kPa
478.47 K	77.75 kPa

CCO [ethanol]
Settings	vapor or sublimation pressure [kPa]
351.44 K	101.3

CCCCCCCO [heptan-1-ol]
Settings	vapor or sublimation pressure [kPa]
419.4 K	40
420.4 K	40.12
423 K	44.2
426.27 K	49.44
430.35 K	56.78
433.75 K	63.5
438.22 K	73.4
441.44 K	81.04
444.34 K	88.14

CCCCCCO [hexan-1-ol]
Settings	vapor or sublimation pressure [kPa]
402.36 K	40
403.66 K	40.02
407.89 K	48.72
413.31 K	58.84
418.35 K	69.27
421.9 K	77.4
425.15 K	85.63
427.54 K	92.07
429.19 K	99.78

CCCCCCCCC [nonane]
Settings	vapor or sublimation pressure [kPa]
392.17 K	40
392.77 K	39.96
399.76 K	49.24
404.65 K	58.04
409.14 K	66.68
413.23 K	75.48
417.05 K	84.18
420.83 K	93.72
423.88 K	101.7

CCCCCCCCO [octan-1-ol]
Settings	vapor or sublimation pressure [kPa]
436.67 K	40
437.67 K	40.08
443.61 K	48.62
445.86 K	52.15
450.45 K	60.03
454.35 K	67.6
457.08 K	74.25
460.31 K	81.52
463.5 K	89.16
466.8 K	97.64

CCCCCO [pentan-1-ol]
Settings	vapor or sublimation pressure [kPa]
384.45 K	40
384.85 K	40.01
392.76 K	54.41
398.11 K	66.15
400.95 K	72.93
404.59 K	82.75
407.17 K	90.21
410.73 K	101.2

CCCCCCCCCCCCCC [tetradecane]
Settings	vapor or sublimation pressure [kPa]
489.17 K	40
489.26 K	40.04
491.29 K	42.42
492.53 K	43.8
495.18 K	46.96
496.08 K	48.13
497.96 K	50.5
498.07 K	50.7

CCCCCCCCCCC [undecane]
Settings	vapor or sublimation pressure [kPa]
434.5 K	40
434.6 K	40.04
438.71 K	45.18
442.2 K	50.04
445.4 K	54.82
448.68 K	60.13
451.59 K	65.09
454.55 K	70.48
458.59 K	78.59
